Test results from patent publication US10500166B2, “Methods for the treatment of erectile dysfunction using fispemifene” (QUATRX PHARMACEUTICALS, priority 2007, dated 2019).

Tests used:
[1] = test system: LH (luteinizing hormone); assay: Example 3 study in hypogonadal men: serum LH (ITT); assay type: in vivo, human; conditions: for LH, Max / LH, Mean ± SD / LH, Median / LH, Min: Baseline (Visit 2)
Method: (§1) A randomized, double-blind, placebo controlled, parallel-group study of once-daily doses of fispemifene (100, 200, and 300 mg/day) given for 4 weeks was conducted in a population of hypogonadal men. Subjects were required to meet all of the following inclusion criteria at screening and prior to randomization to be eligible for the study:
(§2) There were 77 subjects total. The number of subjects randomized to the 100 mg fispemifene, 200 mg fispemifene, 300 mg fispemifene, and placebo arms were 21, 21, 19, and 16, respectively.
(§3) Subjects were randomly assigned to one of four treatment groups in a 1:1:1:1 ratio: • Treatment A (100 mg): fispemifene 100 mg+placebo+placebo; • Treatment B (200 mg): fispemifene 100 mg+fispemifene 100 mg+placebo; • Treatment C (300 mg): fispemifene 100 mg+fispemifene 100 mg+fispemifene 100 mg; and • Treatment D (Placebo): placebo+placebo+placebo.
(§4) Subjects took one dose (three capsules) of study medication once a day at home for 4 weeks. Capsules were to be taken in the morning immediately after breakfast, with the exception of the morning of the Week 4 visit. Capsules were not to be taken on the morning of the Week 4 visit because trough plasma levels of fispemifene were determined by a blood sample taken at this visit. Each subject was randomly assigned to treatment with one of the 3 different dose regimens of fispemifene or placebo vehicle. Each subject received a 4 week supply of study drug.
(§5) Blood samples were taken from the subjects within 1 week prior to dosing with study drug to establish baseline values; after 2 and 4 weeks of randomization; and 2 weeks after the last dose of study drug. Serum was prepared from those samples and used to determine the mean % change from baseline in total testosterone, free testosterone, SHBG (sex hormone-binding globulin), DHT (dihydrotestosterone), E2 (estradiol), LH (luteinizing hormone), FSH (follicle stimulating hormone), and inhibin B.
3. Percent change from baseline in SHBG, DHT, E2, LH, FSH, inhibin B, and testosterone/E2 ratio at Weeks 2, 4, and 6.

[2] = test system: total testosterone; assay: Example 3 study in hypogonadal men: morning serum total testosterone (ITT); assay type: in vivo, human
Method: as §1, §2, §3, §4, §5
The primary efficacy endpoint was defined as percent change from baseline in morning total testosterone levels at Week 4. The intent-to-treat (“ITT”) population was the primary population for analysis. The secondary efficacy endpoints included:
2. Percent change from baseline in total testosterone levels at Weeks 2 and 6; and […]

[3] = 100 mg/day, to Week 6 (2 weeks after discontinuation)
[4] = 200 mg/day, to Week 6 (2 weeks after discontinuation)
[5] = 300 mg/day, to Week 6 (2 weeks after discontinuation)
[6] = 100 mg/day, Week 6 (2 weeks after discontinuation)
[7] = 200 mg/day, Week 6 (2 weeks after discontinuation)
[8] = 300 mg/day, Week 6 (2 weeks after discontinuation)

OCCOCCOc1ccc(/C(=C(/CCCl)c2ccccc2)c2ccccc2)cc1 [Fispemifene, (Z)-2-{2-[4-(4-Chloro-1,2-diphenylbut-1-enyl)phenoxy]ethoxy}ethanol]
LH, Max ([1]; 100 mg/day): 13.50 IU/L
LH, Mean ± SD ([1]; 100 mg/day): 4.43 ± 2.438 IU/L
LH, Median ([1]; 100 mg/day): 4.10 IU/L
LH, Min ([1]; 100 mg/day): 1.50 IU/L
LH, % Change from Baseline, Max ([1]; 100 mg/day, to Week 2): 141%
LH, % Change from Baseline, Mean ± SD ([1]; 100 mg/day, to Week 2): 0.39 ± 0.00496%
LH, % Change from Baseline, Median ([1]; 100 mg/day, to Week 2): 29%
LH, % Change from Baseline, Max ([1]; 100 mg/day, to Week 4): 203%
LH, % Change from Baseline, Median ([1]; 100 mg/day, to Week 4): 49%
LH, % Change from Baseline, Max [1, 3]: 100%
LH, % Change from Baseline, Median [1, 3]: 0%
LH, Max ([1]; 200 mg/day): 11.60 IU/L
LH, Mean ± SD ([1]; 200 mg/day): 4.25 ± 2.028 IU/L
LH, Median ([1]; 200 mg/day): 3.60 IU/L
LH, Min ([1]; 200 mg/day): 1.00 IU/L
LH, % Change from Baseline, Max ([1]; 200 mg/day, to Week 2): 123%
LH, % Change from Baseline, Median ([1]; 200 mg/day, to Week 2): 54%
LH, % Change from Baseline, Max ([1]; 200 mg/day, to Week 4): 137%
LH, % Change from Baseline, Median ([1]; 200 mg/day, to Week 4): 52%
LH, % Change from Baseline, Max [1, 4]: 80%
LH, % Change from Baseline, Median [1, 4]: 19%
LH, Max ([1]; 300 mg/day): 8.00 IU/L
LH, Mean ± SD ([1]; 300 mg/day): 3.62 ± 1.506 IU/L
LH, Median ([1]; 300 mg/day): 3.20 IU/L
LH, Min ([1]; 300 mg/day): 1.90 IU/L
LH, % Change from Baseline, Max ([1]; 300 mg/day, to Week 2): 134%
LH, % Change from Baseline, Median ([1]; 300 mg/day, to Week 2): 63%
LH, % Change from Baseline, Max ([1]; 300 mg/day, to Week 4): 178%
LH, % Change from Baseline, Median ([1]; 300 mg/day, to Week 4): 42%
LH, % Change from Baseline, Max [1, 5]: 84%
LH, % Change from Baseline, Median [1, 5]: 19%
effect on serum LH levels ([1]; hypogonadal men, 100-300 mg/day for 4 weeks): increased
Total Testosterone, Max ([2]; 100 mg/day, Baseline (Visit 2)): 347.0 ng/dL
Total Testosterone, Mean ± SD ([2]; 100 mg/day, Baseline (Visit 2)): 248.6 ± 68.90 ng/dL
Total Testosterone, Median ([2]; 100 mg/day, Baseline (Visit 2)): 266.0 ng/dL
Total Testosterone, Min ([2]; 100 mg/day, Baseline (Visit 2)): 101.0 ng/dL
Total Testosterone, Max ([2]; 100 mg/day, Week 2): 585.0 ng/dL
Total Testosterone, Mean ± SD ([2]; 100 mg/day, Week 2): 369.9 ± 88.23 ng/dL
Total Testosterone, Median ([2]; 100 mg/day, Week 2): 350.0 ng/dL
Total Testosterone, Min ([2]; 100 mg/day, Week 2): 235.0 ng/dL
Total Testosterone, Max ([2]; 100 mg/day, Week 4): 535.0 ng/dL
Total Testosterone, Mean ± SD ([2]; 100 mg/day, Week 4): 371.6 ± 83.36 ng/dL
Total Testosterone, Median ([2]; 100 mg/day, Week 4): 353.0 ng/dL
Total Testosterone, Min ([2]; 100 mg/day, Week 4): 246.0 ng/dL
Total Testosterone, Max [2, 6]: 414.0 ng/dL
Total Testosterone, Mean ± SD [2, 6]: 271.9 ± 69.21 ng/dL
Total Testosterone, Median [2, 6]: 265.0 ng/dL
Total Testosterone, Min [2, 6]: 121.0 ng/dL
Total Testosterone, % Change from Baseline, Max ([2]; 100 mg/day, to Week 2): 133%
Total Testosterone, % Change from Baseline, Median ([2]; 100 mg/day, to Week 2): 45%
Total Testosterone, % Change from Baseline, Min ([2]; 100 mg/day, to Week 2): 14%
Total Testosterone, % Change from Baseline, Max ([2]; 100 mg/day, to Week 4): 198%
Total Testosterone, % Change from Baseline, Median ([2]; 100 mg/day, to Week 4): 35%
Total Testosterone, % Change from Baseline, Min ([2]; 100 mg/day, to Week 4): 7%
Total Testosterone, % Change from Baseline, Max [2, 3]: 119%
Total Testosterone, % Change from Baseline, Median [2, 3]: 11%
Total Testosterone, Max ([2]; 200 mg/day, Baseline (Visit 2)): 334.0 ng/dL
Total Testosterone, Mean ± SD ([2]; 200 mg/day, Baseline (Visit 2)): 249.1 ± 60.90 ng/dL
Total Testosterone, Median ([2]; 200 mg/day, Baseline (Visit 2)): 253.0 ng/dL
Total Testosterone, Min ([2]; 200 mg/day, Baseline (Visit 2)): 133.0 ng/dL
Total Testosterone, Max ([2]; 200 mg/day, Week 2): 497.0 ng/dL
Total Testosterone, Mean ± SD ([2]; 200 mg/day, Week 2): 370.0 ± 72.44 ng/dL
Total Testosterone, Median ([2]; 200 mg/day, Week 2): 354.0 ng/dL
Total Testosterone, Min ([2]; 200 mg/day, Week 2): 238.0 ng/dL
Total Testosterone, Max ([2]; 200 mg/day, Week 4): 626.0 ng/dL
Total Testosterone, Mean ± SD ([2]; 200 mg/day, Week 4): 387.3 ± 107.39 ng/dL
Total Testosterone, Median ([2]; 200 mg/day, Week 4): 372.0 ng/dL
Total Testosterone, Min ([2]; 200 mg/day, Week 4): 241.0 ng/dL
Total Testosterone, Max [2, 7]: 539.0 ng/dL
Total Testosterone, Mean ± SD [2, 7]: 276.2 ± 97.28 ng/dL
Total Testosterone, Median [2, 7]: 240.0 ng/dL
Total Testosterone, Min [2, 7]: 162.0 ng/dL
Total Testosterone, % Change from Baseline, Max ([2]; 200 mg/day, to Week 2): 142%
Total Testosterone, % Change from Baseline, Median ([2]; 200 mg/day, to Week 2): 48%
Total Testosterone, % Change from Baseline, Min ([2]; 200 mg/day, to Week 2): 17%
Total Testosterone, % Change from Baseline, Median ([2]; 200 mg/day, to Week 4): 60%
Total Testosterone, % Change from Baseline, Max [2, 4]: 79%
Total Testosterone, % Change from Baseline, Median [2, 4]: 11%
Total Testosterone, Max ([2]; 300 mg/day, Baseline (Visit 2)): 348.0 ng/dL
Total Testosterone, Mean ± SD ([2]; 300 mg/day, Baseline (Visit 2)): 234.2 ± 77.69 ng/dL
Total Testosterone, Median ([2]; 300 mg/day, Baseline (Visit 2)): 246.0 ng/dL
Total Testosterone, Min ([2]; 300 mg/day, Baseline (Visit 2)): 17.0 ng/dL
Total Testosterone, Max ([2]; 300 mg/day, Week 2): 526.0 ng/dL
Total Testosterone, Mean ± SD ([2]; 300 mg/day, Week 2): 379.2 ± 122.04 ng/dL
Total Testosterone, Median ([2]; 300 mg/day, Week 2): 427.0 ng/dL
Total Testosterone, Min ([2]; 300 mg/day, Week 2): 13.0 ng/dL
Total Testosterone, Max ([2]; 300 mg/day, Week 4): 643.0 ng/dL
Total Testosterone, Mean ± SD ([2]; 300 mg/day, Week 4): 430.7 ± 163.39 ng/dL
Total Testosterone, Median ([2]; 300 mg/day, Week 4): 479.0 ng/dL
Total Testosterone, Min ([2]; 300 mg/day, Week 4): 8.0 ng/dL
Total Testosterone, Max [2, 8]: 423.0 ng/dL
Total Testosterone, Mean ± SD [2, 8]: 279.2 ± 102.84 ng/dL
Total Testosterone, Median [2, 8]: 293.0 ng/dL
Total Testosterone, Min [2, 8]: 16.0 ng/dL
Total Testosterone, % Change from Baseline, Max ([2]; 300 mg/day, to Week 2): 101%
Total Testosterone, % Change from Baseline, Median ([2]; 300 mg/day, to Week 2): 65%
Total Testosterone, % Change from Baseline, Max ([2]; 300 mg/day, to Week 4): 181%
Total Testosterone, % Change from Baseline, Median ([2]; 300 mg/day, to Week 4): 80%
Total Testosterone, % Change from Baseline, Max [2, 5]: 77%
Total Testosterone, % Change from Baseline, Median [2, 5]: 14%
effect on serum total testosterone concentration ([2]; hypogonadal men, within 14 days from the start of treatment, maintained during treatment): clinically and statistically significant and dose dependent increase to, but not beyond, the normal range
